Measured values published in publication PMC9360399, “Alterations to the broad-spectrum formin inhibitor SMIFH2 modulate potency but not specificity” (Scientific Reports, 2022).
“Also recorded” adds a separate entry of the source.

How the values were obtained:
formin = tested on: formin; parameters: method as in PMID 33589498; settings: read-out: IC50 formin/mediated actin interactions; cited from earlier work
FMNL3 = biological target: T1, FMNL3 (Homo sapiens, UniProt Q8IVF7); experiment: pyrene-actin polymerization assay, FMNL3-FFC; assay type: biochemical
T1 construct: UniProt Q8IVF7-1, aa 481-1028; 6-histidine tag (N); made in house; host or cells: ROSETTA-DE3 E. coli
Protocol: (§1) Several SMIFH2 analogs are known to retain or lose inhibitory activity against mDia1[18]. We sought to expand this dataset to more extensively characterize structure–activity relationships in the SMIFH2/formin complex. All 17 analogs shown in Fig. 4 were synthesized according to the scheme described in the Experimental Procedures (Fig. 6) and characterized by proton NMR (Fig. S8). Each inhibitor was tested for potential interaction with actin in the absence of formin (Figs. S3, S4). […] This panel of 18 inhibitors was tested against five formin FFC fragments (DIAPH1, DIAPH2, INF2, FMNL3, and FMN2), and the IC50 values were measured (Fig. 4 and Table 1). One notable trend in this dataset is that the lack of specificity, noted above for SMIFH2 (Fig. 3), holds for its analogs: no modifications made to SMIFH2 led to a selective inhibitor, at least among the five formins that were tested.
(§2) Figure 4 Structure activity data for SMIFH2 and 17 analogs tested against five human formins. Each individual data point indicates an IC50 value from a titration of inhibitor in the pyrene-actin assembly assay. Conditions: 2 µM actin (5% pyrene-labeled), 4 µM S. pombe profilin, formin (5 nM DIAPH1-FFC, 5 nM DIAPH2-FFC, 5 nM INF2-FFC, 20–37.5 nM FMN2-FFC, 20 nM FMNL3-FFC), inhibitor with a fixed volume of DMSO. […] Because we cannot reliably measure IC50 values above 40 µM, those points are indicated at the > 40 µM line.
(§3) Assays were carried out as described. Rabbit skeletal muscle actin (5% pyrene labeled) was incubated for 2 min at 25 °C with 200 μM EGTA and 50 μM MgCl2 to convert Ca-actin to Mg-actin. When included in the experiment, a 2:1 molar ratio of profilin was incubated with actin for 2 min at 25 °C before conversion to Mg-actin. Polymerization was initiated by adding polymerization buffer (KMEH, final concentration: 10 mM HEPES, pH 7.0, 1 mM EGTA, 50 mM KCl, 1 mM MgCl2). Prior to mixing KMEH with actin, formins and then the inhibitor in DMSO or DMF was added at ≤ 1% of the total volume. Finally, this mixture was rapidly mixed with Mg-actin, with approximately 10–20 s dead time prior to measurement. Fluorescence was monitored every 15 s using a TECAN F200 Pro with λex = 360 ± 17 nm and λem = 415 ± 10 nm. The same volume of organic solvent (DMSO or DMF) was added to each well regardless of inhibitor concentration.

INF2 = biological target: T2, INF2 (Homo sapiens, UniProt Q27J81); experiment: pyrene-actin polymerization assay, INF2-FFC; assay type: biochemical
T2 construct: UniProt Q27J81-1, aa 469–1249; 6-histidine tag (N); made in house; host or cells: ROSETTA-DE3 E. coli
Protocol: as §1, §2, §3

DIAPH1 = DIAPH1 (Homo sapiens, UniProt O60610); experiment: pyrene-actin polymerization assay, DIAPH1-FFC; assay type: biochemical
Protocol: as §1, §2, §3

FMN2 = biological target: T3, FMN2 (Homo sapiens, UniProt Q9NZ56); experiment: pyrene-actin polymerization assay, FMN2-FFC; assay type: biochemical
T3 construct: UniProt Q9NZ56-1, aa 1192-1722; 6-histidine tag (N); made in house; host or cells: ROSETTA-DE3 E. coli
Protocol: as §1, §2, §3

mouse Dia1 = tested on: mouse Dia1; parameters: method as in PMID 19942139; settings: reported value; cited from earlier work
Drosophila myosin 5 = tested on: Drosophila myosin 5; parameters: method as in PMID 33589498; settings: read-out: IC50 actin-induced ATPase activity of Drosophila myosin 5; cited from earlier work
DIAPH2 = biological target: T4, DIAPH2 (Homo sapiens, UniProt O60879); experiment: pyrene-actin polymerization assay, DIAPH2-FFC; assay type: biochemical
T4 construct: UniProt O60879-2, aa 553–1096; 6-histidine tag (N); made in house; host or cells: ROSETTA-DE3 E. coli
Protocol: as §1, §2, §3

human formins = experiment: pyrene-actin polymerization assay, panel of human formin FFC fragments; assay type: biochemical; settings: for inhibitory activity against formins tested (in words): five formin FFC fragments (DIAPH1, DIAPH2, INF2, FMNL3, FMN2); for fold change in potency (IC50) compared with SMIFH2 (1): depending on the formin
Protocol: Figure 3 SMIFH2 has broad activity across the human formins. For each titration, pyrene fluorescence was monitored for 2 μM actin (5% pyrene-labeled)/ 4 μM S. pombe profilin. […] Increasing concentration of SMIFH2 is indicated by blue traces, with the µM concentration labeled to the right of each plot. The volume of DMSO added was the same for all traces, regardless of SMIFH2 concentration.
To characterize the specificity of SMIFH2, we titrated the inhibitor against each purified formin, controlling for the volume of DMSO for all polymerization reactions (Fig. 3, as indicated by blue traces).
as §1, §3

solubility in DMSO = assay type: physicochemical; settings: had to be dissolved in DMF for assays

T1 sequence (Q8IVF7 481-1028): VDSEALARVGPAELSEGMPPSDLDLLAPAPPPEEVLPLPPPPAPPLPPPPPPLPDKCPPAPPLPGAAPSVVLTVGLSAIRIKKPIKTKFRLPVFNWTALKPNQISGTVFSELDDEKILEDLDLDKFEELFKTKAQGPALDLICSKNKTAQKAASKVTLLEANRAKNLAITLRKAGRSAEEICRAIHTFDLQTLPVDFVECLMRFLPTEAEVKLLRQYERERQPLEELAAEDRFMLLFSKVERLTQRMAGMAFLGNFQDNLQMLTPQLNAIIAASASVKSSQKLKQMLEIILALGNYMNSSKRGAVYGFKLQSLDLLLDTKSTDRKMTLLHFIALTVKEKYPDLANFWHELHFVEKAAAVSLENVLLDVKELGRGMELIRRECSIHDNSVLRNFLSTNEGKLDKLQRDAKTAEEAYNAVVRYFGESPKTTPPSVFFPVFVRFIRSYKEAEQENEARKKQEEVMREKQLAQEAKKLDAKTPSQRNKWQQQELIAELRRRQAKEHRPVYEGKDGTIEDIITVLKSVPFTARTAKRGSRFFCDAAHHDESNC
T3 sequence (Q9NZ56 1192-1722): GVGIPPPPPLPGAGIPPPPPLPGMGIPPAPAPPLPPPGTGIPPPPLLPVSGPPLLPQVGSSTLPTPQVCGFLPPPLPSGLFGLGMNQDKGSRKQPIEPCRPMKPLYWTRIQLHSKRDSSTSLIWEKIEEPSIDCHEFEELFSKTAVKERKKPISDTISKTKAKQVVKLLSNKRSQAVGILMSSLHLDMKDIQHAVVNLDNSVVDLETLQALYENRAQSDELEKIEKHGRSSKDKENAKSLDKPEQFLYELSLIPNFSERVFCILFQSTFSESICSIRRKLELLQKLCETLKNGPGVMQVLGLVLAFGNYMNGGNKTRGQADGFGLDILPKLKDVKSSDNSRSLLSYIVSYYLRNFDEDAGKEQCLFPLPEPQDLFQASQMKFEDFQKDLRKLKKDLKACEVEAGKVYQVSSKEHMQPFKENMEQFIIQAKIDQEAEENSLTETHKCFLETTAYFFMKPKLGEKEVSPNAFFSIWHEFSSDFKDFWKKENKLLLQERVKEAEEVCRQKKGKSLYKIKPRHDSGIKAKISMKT
DIAPH1, sequence (O60610 769-1222 limits assumed): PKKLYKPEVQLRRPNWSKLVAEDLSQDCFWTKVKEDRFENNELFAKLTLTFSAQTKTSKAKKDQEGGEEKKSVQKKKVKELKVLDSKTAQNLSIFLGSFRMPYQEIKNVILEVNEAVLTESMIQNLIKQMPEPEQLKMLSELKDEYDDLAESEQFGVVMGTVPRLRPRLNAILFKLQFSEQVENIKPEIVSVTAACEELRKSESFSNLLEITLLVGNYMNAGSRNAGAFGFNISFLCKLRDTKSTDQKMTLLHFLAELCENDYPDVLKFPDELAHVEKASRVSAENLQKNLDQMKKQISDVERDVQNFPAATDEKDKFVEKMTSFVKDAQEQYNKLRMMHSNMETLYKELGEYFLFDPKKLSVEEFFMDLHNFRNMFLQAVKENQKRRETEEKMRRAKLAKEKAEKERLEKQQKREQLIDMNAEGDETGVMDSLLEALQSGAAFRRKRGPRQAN
T2 sequence (Q27J81 469-1249): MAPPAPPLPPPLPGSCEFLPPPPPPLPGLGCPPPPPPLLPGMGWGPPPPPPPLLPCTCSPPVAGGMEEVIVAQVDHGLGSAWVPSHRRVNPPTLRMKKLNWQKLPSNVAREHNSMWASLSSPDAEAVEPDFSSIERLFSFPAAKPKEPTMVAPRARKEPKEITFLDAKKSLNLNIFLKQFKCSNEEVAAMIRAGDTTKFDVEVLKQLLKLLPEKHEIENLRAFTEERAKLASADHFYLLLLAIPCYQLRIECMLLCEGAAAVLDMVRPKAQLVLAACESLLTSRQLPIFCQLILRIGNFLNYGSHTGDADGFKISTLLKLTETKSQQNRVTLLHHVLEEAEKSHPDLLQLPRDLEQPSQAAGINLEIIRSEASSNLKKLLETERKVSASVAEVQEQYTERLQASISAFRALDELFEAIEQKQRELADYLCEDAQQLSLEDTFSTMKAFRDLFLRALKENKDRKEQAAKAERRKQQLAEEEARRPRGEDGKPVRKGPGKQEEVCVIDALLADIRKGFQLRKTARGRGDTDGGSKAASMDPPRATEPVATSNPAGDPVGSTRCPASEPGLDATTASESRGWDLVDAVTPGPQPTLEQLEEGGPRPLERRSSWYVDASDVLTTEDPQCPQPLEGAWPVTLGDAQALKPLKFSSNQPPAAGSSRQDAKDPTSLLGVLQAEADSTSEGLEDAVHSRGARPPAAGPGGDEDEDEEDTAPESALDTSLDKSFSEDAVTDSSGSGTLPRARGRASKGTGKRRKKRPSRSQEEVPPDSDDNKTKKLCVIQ
T4 sequence (O60879 553-1096 isoform O60879-2): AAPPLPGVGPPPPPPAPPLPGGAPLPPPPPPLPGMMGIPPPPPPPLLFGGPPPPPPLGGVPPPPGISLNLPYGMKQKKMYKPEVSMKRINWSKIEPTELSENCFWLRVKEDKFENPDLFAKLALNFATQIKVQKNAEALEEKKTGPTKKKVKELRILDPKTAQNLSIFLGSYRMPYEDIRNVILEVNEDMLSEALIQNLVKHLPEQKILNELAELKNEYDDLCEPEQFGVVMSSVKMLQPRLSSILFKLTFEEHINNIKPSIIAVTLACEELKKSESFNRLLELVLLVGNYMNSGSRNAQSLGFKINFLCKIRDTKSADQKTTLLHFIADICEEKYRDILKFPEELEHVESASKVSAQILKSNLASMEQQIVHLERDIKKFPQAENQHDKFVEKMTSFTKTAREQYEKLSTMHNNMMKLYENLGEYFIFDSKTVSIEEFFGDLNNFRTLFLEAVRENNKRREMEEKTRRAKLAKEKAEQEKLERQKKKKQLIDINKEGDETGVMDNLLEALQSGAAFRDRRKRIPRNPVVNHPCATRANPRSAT

Structure (SMILES) | IC50 (formin) | IC50 (FMNL3) | IC50 (INF2) | IC50 (DIAPH1) | IC50 (FMN2) | IC50 (mouse Dia1) | IC50 (Drosophila myosin 5) | IC50 (DIAPH2) | inhibitory activity against formins tested (in words) (human formins) | fold change in potency (IC50) compared with SMIFH2 (1) (human formins) | solubility (solubility in DMSO)
O=C1NC(=S)N(c2cccc(Br)c2)C(=O)C1=Cc1ccco1 [Compound 1, 1-(3-bromophenyl)-5-(furan-2-ylmethylene)-2-thioxodihydropyrimidine-4,6(1H,5H)-dione, reference compound] | 10 to 20 µM | 21 ± 7 µM | 10 ± 5 µM | 30 ± 10 µM | 10 ± 3 µM | 15 µM | ~2 µM | 6 ± 3 µM | – | – | –
CN1C(=O)C(=Cc2ccco2)C(=O)N(c2cccc(Br)c2)C1=S [Compound 2] | – | 4 ± 1 µM | 5 ± 2 µM | 13 ± 3 µM | 14 ± 2 µM | – | – | 5 ± 5 µM | well tolerated | – | –
CCN1C(=O)C(=Cc2ccco2)C(=O)N(c2cccc(Br)c2)C1=S [Compound 3] | – | 40 µM | > 40 µM | > 40 µM | > 40 µM | – | – | > 40 µM | – | – | –
O=C1C(=Cc2ccco2)C(=O)N(c2cccc(Br)c2)C(=S)N1c1ccccc1 [Compound 4] | – | 4 ± 1 µM | 4 ± 1 µM | 11 ± 7 µM | 9 ± 1 µM | – | – | 2.3 ± 1.7 µM | well tolerated | 3–fourfold more potent | –
O=C1NC(=O)N(c2cccc(Br)c2)C(=O)C1=Cc1ccco1 [Compound 5] | – | > 40 µM | > 40 µM | > 40 µM | > 40 µM | – | – | > 40 µM | complete loss of inhibitory activity | – | –
O=C1NC(=S)N(c2cccc(Br)c2)C(=O)C1=Cc1ccc[nH]1 [Compound 6] | – | > 40 µM | > 40 µM | > 40 µM | > 40 µM | – | – | > 40 µM | no detectable inhibitory effect | – | –
O=C1NC(=S)N(c2cccc(Br)c2)C(=O)C1=Cc1cccs1 [Compound 7] | – | > 40 µM | > 40 µM | > 40 µM | – | – | – | > 40 µM | no detectable inhibitory effect | – | –
O=C1NC(=S)N(c2ccc(Br)cc2)C(=O)C1=Cc1ccco1 [Compound 8] | – | 6 ± 3 µM | 7 ± 2 µM | 8 ± 3 µM | 8 ± 4 µM | – | – | 3 ± 1 µM | maintained or slightly enhanced inhibitory activity | – | –
O=C1NC(=S)N(c2ccccc2)C(=O)C1=Cc1ccco1 [Compound 9] | – | > 40 µM | 30 µM | > 40 µM | – | – | – | 40 µM | measurable but weak to minimal activity | – | low solubility; also recorded: poorly soluble in DMSO
COc1ccc(N2C(=O)C(=Cc3ccco3)C(=O)NC2=S)cc1 [Compound 10] | – | 17 ± 6 µM | 37 ± 16 µM | 27 ± 12 µM | 23 ± 4 µM | – | – | 12 ± 8 µM | reduced activity | – | –
COc1ccc(N2C(=O)C(=Cc3ccc(Br)o3)C(=O)NC2=S)cc1 [Compound 11] | – | 7 ± 1 µM | 3 ± 2 µM | 8 ± 2 µM | 10 ± 1 µM | – | – | 2 ± 1.4 µM | – | – | –
COc1ccc(N2C(=O)C(=Cc3ccc(Cl)o3)C(=O)NC2=S)cc1 [Compound 12] | – | 3 ± 2 µM | 2 ± 1 µM | 4 ± 1 µM | 5 ± 3 µM | – | – | 1 ± 0.2 µM | most potent inhibitor | two–ninefold | –
COc1ccc(N2C(=O)C(=Cc3cc(Br)co3)C(=O)NC2=S)cc1 [Compound 13] | – | 4 ± 1 µM | 6 ± 2 µM | – | – | – | – | 3.3 ± 0.2 µM | – | – | –
O=C1NC(=S)N(c2ccc(Br)cc2)C(=O)C1=Cc1ccc(Cl)o1 [Compound 14] | – | 10 µM | 8 ± 1 µM | 14 ± 2 µM | 15 µM | – | – | 4 ± 1 µM | – | – | –
O=C1NC(=S)N(c2cccc(Br)c2)C(=O)C1=Cc1ccc(Cl)o1 [Compound 15] | – | 7 ± 1 µM | 4 ± 1 µM | 12 ± 6 µM | 11 ± 4 µM | – | – | 4 ± 1 µM | well tolerated | – | –
O=C1NC(=S)N(c2cccc(Br)c2)C(=O)C1=Cc1ccc(Br)o1 [Compound 16] | – | 14 ± 5 µM | 7 ± 3 µM | 30 ± 10 µM | 25 ± 5 µM | – | – | 9 ± 1 µM | well tolerated | – | –
Cc1ccc(C=C2C(=O)NC(=S)N(c3cccc(Br)c3)C2=O)o1 [Compound 17] | – | > 40 µM | > 40 µM | > 40 µM | > 40 µM | – | – | > 40 µM | abolished activity | – | –
O=C1NC(=S)N(c2cccc(Br)c2)C(=O)/C1=C/C=C/c1ccco1 [Compound 18] | – | – | > 40 µM | – | – | – | – | 20 µM | modest activity | – | –
